Among the targets are HIPK1 (UniProt Q86Z02); UniProt P68400; PLK1 (UniProt P53350); SRC (UniProt P12931); UniProt Q9NYL2; RAF1 (UniProt P04049).
Common to all, as to experiment: pIC50, kinobeads binding competition
Details in all cases: cell material: Jurkat lysate

The next test addresses T1, UniProt O14920.
T1 sequence (whole entry): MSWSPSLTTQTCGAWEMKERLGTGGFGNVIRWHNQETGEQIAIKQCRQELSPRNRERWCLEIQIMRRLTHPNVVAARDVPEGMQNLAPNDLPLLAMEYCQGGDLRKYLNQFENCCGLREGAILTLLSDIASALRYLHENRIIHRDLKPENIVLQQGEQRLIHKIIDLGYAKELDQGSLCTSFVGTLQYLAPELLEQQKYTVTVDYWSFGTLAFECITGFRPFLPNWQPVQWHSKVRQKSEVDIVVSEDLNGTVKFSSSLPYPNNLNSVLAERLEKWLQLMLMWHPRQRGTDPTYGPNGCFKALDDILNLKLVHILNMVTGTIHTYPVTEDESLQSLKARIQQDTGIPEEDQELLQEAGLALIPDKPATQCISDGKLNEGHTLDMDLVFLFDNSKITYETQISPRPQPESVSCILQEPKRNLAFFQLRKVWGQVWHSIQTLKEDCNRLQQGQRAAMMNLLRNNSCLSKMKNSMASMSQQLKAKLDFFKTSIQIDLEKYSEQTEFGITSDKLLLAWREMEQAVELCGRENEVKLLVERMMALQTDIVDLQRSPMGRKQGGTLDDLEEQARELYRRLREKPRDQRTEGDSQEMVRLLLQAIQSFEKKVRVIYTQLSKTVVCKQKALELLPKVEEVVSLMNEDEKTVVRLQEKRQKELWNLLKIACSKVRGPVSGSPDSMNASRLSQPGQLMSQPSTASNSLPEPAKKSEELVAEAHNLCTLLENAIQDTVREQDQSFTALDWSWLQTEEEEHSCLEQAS

In another test the target is T2, PIP4K2A (UniProt P48426).
T2 sequence (whole entry): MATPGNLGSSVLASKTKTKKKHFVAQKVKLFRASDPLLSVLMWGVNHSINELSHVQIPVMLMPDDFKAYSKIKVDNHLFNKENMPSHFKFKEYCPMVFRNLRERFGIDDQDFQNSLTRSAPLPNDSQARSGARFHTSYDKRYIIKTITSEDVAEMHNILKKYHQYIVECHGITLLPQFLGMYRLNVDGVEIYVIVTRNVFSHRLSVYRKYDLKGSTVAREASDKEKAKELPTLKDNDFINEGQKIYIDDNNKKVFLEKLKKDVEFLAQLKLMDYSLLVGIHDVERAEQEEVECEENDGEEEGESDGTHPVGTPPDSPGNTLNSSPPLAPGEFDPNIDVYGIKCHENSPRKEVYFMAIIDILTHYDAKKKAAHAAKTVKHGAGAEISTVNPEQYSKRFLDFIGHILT

In another test the target is T3, NEK3 (UniProt P51956).
T3 sequence (whole entry): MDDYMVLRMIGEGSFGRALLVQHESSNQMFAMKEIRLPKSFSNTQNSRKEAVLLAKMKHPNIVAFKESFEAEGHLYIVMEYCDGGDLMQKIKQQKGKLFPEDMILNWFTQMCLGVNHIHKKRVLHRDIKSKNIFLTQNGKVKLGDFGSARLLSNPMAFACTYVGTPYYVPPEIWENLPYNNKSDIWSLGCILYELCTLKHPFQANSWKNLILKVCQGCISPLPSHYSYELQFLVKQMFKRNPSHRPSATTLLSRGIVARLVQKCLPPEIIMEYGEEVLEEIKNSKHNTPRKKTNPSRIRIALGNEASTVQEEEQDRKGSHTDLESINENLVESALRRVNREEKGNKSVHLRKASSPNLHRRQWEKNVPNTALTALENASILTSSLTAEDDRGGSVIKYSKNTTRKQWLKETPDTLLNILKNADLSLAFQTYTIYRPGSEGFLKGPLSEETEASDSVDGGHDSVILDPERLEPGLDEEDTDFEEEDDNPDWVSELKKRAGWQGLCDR

The target of another test is T4, BMPR2 (UniProt Q13873).
T4 sequence (whole entry): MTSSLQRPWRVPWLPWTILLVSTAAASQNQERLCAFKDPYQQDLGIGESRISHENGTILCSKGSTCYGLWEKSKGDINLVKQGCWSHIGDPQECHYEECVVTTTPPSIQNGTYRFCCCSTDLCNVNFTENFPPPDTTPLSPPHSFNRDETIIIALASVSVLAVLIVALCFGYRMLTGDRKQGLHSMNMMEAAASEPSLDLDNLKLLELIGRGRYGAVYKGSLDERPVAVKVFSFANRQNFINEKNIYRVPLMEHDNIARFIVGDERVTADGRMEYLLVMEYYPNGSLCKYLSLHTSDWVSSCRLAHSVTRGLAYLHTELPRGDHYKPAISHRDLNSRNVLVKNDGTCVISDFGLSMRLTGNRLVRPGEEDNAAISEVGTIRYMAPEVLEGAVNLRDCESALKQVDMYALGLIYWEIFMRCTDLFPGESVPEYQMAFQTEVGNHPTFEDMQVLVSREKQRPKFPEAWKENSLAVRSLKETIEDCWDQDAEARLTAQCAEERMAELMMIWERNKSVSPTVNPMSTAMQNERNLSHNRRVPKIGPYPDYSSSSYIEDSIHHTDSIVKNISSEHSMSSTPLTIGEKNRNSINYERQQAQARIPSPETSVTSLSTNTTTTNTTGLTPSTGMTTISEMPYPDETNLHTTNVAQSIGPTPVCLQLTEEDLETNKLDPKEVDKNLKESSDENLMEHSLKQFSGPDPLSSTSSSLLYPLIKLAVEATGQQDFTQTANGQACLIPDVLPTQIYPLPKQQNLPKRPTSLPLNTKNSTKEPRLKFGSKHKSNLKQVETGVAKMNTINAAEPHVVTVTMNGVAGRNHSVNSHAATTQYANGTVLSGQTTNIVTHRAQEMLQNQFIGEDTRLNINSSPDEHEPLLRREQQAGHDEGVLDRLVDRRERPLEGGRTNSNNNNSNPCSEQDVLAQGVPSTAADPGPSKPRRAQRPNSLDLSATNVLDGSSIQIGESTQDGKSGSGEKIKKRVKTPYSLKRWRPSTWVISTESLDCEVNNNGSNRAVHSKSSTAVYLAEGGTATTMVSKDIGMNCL

In general, pIC50 refers to −log10 of the IC50, conventionally taken in molar units. High values mean a low IC50, low ones a high IC50.

Sequence of HIPK1 (Q86Z02 whole entry, looked up): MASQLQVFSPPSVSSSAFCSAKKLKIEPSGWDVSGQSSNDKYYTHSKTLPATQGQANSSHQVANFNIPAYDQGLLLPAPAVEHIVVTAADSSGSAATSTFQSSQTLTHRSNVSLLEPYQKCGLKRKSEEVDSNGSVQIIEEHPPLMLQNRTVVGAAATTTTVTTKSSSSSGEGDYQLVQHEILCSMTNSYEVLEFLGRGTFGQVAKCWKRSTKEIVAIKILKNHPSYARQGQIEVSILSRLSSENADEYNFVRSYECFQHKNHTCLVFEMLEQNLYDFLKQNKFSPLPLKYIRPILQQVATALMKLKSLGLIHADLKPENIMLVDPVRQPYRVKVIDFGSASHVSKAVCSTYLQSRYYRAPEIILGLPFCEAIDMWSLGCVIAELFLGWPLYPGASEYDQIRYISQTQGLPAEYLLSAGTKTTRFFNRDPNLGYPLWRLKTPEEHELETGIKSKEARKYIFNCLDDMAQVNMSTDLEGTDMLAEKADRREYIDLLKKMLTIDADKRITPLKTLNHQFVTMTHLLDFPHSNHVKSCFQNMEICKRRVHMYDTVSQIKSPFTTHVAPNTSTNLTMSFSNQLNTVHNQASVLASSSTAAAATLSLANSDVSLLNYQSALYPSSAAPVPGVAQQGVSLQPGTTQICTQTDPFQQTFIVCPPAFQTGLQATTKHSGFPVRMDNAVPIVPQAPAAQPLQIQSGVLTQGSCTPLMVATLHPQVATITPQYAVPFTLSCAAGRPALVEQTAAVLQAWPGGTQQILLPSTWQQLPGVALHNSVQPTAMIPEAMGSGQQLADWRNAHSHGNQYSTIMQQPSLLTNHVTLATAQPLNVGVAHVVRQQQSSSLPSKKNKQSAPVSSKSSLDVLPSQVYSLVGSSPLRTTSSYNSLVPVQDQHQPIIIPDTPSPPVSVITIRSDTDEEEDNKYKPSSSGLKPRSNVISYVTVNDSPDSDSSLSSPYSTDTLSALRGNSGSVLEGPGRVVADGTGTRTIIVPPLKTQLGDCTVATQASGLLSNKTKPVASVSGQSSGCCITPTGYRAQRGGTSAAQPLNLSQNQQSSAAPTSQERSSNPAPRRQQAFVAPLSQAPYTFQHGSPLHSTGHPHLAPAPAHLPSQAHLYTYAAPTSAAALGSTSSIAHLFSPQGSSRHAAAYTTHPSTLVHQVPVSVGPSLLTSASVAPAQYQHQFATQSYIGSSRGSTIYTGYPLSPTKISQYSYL
Sequence of PLK1 (P53350 whole entry): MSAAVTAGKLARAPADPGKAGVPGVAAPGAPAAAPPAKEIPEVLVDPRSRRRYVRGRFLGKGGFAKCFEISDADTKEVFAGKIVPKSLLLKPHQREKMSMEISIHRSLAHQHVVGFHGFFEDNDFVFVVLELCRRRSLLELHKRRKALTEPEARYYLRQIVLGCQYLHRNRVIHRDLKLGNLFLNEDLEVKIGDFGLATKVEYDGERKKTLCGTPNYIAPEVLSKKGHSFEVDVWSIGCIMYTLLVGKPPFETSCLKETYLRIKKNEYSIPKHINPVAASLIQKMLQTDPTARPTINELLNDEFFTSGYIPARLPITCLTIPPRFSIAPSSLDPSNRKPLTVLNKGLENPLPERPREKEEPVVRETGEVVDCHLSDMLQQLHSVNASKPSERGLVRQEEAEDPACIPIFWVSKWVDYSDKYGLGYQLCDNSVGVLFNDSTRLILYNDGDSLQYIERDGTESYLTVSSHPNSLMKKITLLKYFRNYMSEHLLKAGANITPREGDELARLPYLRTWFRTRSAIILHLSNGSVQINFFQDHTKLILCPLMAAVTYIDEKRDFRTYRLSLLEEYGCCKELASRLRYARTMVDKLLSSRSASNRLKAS
Sequence of RAF1 (P04049 whole entry): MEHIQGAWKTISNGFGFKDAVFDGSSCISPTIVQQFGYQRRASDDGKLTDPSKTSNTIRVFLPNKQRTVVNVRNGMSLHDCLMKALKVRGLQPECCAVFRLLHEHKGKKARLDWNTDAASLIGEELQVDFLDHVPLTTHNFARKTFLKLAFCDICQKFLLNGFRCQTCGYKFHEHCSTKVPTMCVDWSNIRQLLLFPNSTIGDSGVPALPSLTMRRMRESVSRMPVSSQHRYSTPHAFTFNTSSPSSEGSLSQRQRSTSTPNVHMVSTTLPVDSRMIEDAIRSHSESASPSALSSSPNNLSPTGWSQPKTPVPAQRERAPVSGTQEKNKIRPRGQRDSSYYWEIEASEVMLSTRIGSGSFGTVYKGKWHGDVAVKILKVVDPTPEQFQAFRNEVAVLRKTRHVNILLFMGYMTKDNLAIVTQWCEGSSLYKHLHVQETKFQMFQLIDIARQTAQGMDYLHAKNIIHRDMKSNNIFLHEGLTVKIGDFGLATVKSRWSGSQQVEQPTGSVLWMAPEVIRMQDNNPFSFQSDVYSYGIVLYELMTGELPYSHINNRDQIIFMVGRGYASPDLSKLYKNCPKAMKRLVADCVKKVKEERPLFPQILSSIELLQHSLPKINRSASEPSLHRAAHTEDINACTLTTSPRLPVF
Sequence of UniProt Q9NYL2 (Q9NYL2 whole entry, looked up): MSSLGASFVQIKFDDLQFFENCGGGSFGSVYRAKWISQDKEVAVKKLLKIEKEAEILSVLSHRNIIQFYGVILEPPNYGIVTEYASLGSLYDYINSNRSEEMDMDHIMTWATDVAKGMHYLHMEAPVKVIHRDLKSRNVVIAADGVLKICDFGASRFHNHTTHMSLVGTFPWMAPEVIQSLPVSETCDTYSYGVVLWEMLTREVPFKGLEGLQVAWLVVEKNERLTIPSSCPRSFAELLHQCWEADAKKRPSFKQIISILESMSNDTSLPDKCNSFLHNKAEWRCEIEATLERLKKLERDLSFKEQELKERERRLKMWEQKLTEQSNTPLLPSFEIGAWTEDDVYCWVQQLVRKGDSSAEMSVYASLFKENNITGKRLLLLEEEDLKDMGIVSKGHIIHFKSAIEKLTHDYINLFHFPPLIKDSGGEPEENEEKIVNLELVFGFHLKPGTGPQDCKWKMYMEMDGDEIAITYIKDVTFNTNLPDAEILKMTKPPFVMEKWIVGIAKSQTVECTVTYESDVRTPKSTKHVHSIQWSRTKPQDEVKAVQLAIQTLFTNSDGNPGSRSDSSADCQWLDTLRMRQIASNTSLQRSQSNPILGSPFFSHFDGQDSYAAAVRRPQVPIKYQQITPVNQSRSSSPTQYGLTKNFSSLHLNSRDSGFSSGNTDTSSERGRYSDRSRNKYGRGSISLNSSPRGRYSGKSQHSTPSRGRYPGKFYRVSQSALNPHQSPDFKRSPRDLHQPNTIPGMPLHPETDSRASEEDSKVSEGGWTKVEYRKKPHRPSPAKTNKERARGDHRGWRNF
Sequence of UniProt P68400 (P68400 whole entry, looked up): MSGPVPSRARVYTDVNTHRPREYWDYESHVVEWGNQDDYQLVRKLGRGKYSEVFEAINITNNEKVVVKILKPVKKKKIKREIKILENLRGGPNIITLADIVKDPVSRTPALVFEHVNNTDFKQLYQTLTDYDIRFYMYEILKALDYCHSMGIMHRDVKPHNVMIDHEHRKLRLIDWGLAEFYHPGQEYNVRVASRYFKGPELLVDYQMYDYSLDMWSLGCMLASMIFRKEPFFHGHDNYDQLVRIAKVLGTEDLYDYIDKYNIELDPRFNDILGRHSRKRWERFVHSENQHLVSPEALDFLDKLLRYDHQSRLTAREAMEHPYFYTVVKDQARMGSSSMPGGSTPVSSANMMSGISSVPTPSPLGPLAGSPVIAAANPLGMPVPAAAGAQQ
Sequence of SRC (P12931 whole entry, looked up): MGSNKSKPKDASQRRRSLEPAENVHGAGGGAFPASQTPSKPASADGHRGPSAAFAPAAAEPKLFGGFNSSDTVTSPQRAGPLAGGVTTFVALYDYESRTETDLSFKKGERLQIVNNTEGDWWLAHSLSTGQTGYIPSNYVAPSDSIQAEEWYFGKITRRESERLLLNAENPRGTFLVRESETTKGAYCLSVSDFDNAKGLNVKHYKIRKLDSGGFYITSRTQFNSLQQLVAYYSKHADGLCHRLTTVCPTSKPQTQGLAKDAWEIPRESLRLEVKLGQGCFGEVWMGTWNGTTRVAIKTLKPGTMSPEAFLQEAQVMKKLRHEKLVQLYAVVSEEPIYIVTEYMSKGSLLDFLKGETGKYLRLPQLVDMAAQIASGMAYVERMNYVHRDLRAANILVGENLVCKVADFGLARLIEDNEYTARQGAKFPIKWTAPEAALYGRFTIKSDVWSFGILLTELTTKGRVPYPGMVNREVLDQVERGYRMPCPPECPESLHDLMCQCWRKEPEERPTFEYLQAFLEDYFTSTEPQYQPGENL

Regarding `CCc1cnn2c(NCc3ccc[n+]([O-])c3)cc(N3CCCC[C@H]3CCO)nc12` [dinaciclib], the pIC50 on HIPK1 was 4.77; at UniProt P68400, below 4.52; at PLK1, below 4.52; at UniProt O14920, below 4.52; on PIP4K2A, below 4.52; on SRC it was below 4.52. In addition, the pIC50 at NEK3, on BMPR2, at UniProt Q9NYL2 and on RAF1 was below 4.52 each time.

The values are drawn from the supplement of paper PMC12076712.
